Results: US11913884B2, “Visible light-activated dyes and methods of use thereof” (William Marsh Rice University, priority 2019, dated 2024)

Columns and labels:
[1] = test system: adipocytes differentiated from 3T3-L1 cells; test: Co-localization assay by confocal laser scanning microscopy; type: cell-based; details: 2 μM, 10 mins, after 488-nm laser for 30 s
Experimental: Before testing the utility of thio-caged fluorophores for investigating biological systems, the cytotoxicity of SNile Red in adipocytes was evaluated using Cell Counting Kit-8. At a concentration of 4 μM SNile Red, 90% of 3T3-L1 cells remained viable even after 24 hours (FIG. 10). Thio-caged dyes were then used to obtain subcellular structural data via fluorescence imaging of adipocytes. Nile Red and BODIPY are the fluorescent dyes most commonly used for lipid imaging (Corsaro and Pistara, 1998, Spiller et al., 1998, Tang et al., 2013). Confocal laser scanning microscopy (CLSM) was used to determine the specificity of SNile Red localization in adipocytes differentiated from 3T3-L1 cells. For colocalization studies, adipocytes were stained with 2 μM SNile Red and 100 nM BODIPY 493/503 for 10 mins.
3T3-L1 cells were differentiated to adipocytes according to the protocol from ATCC (Chemically-induced differentiation of at CC® CL-173TM (3T3-L1) using single-Component Commercially-available reagents). […]
After incubation of 2 μM SNile Red for 10 min, cells were washed with PBS (pH 7.4) twice and turned to confocal laser scanning microscope (CLSM). […] Differential interference contrast (DIC) and fluorescent images were processed and analyzed using ImageJ. The Pearson's Coefficient was calculated by ImageJ.

[2] = UV-vis absorption and fluorescence spectra of thio-caged and uncaged fluorophores; type: physicochemical; details: DMSO (50 μM)
Experimental: Encouraged by the excellent photoactivation properties of SNile Red, Lawesson's reagent was employed to introduce thiocarbonyl moieties into several different fluorophores, such as phthalimide (PI), coumarin (Cou) and acridone (ACD), obtaining yields ranging from 20-80% (FIG. 1). Next, characterization of the spectroscopic and photochemical properties of these thiocaged fluorophores and their oxidized products using UV-vis and fluorescence spectroscopies was performed (Table 1). […] Double thiocarbonyl substitution on 4-dimethylaminophthalimide (4-DMAP, FIG. 1) produced an even larger bathochromic shift of 166 nm. […] It was hypothesized that the red-shift and enhanced absorption seen with thiocarbonyl compounds were due to the reduced energy gap between the HOMO-LUMO in these fluorophores. This is consistent with the computational results discussed below. […] To assess the efficiency of photoactivation for the various thio-caged fluorophores, UV-vis and fluorescence spectra were recorded after different irradiation times (FIGS. 4-8).
(§1) The ^1H NMR spectroscopic measurements were carried out using a Bruker-600 NMR at 600 MHz with tetramethysilane (TMS) as internal reference. Electrospray ionization (ESI) mass spectra were performed on a Bruker MicroToF ESI LC-MS System in positive-ion mode. The steady-state absorption spectra were obtained with a ThermoFisher Evolution 220 UV-Vis spectrophotometer in 1 cm path length quartz cells. Fluorescence spectra were recorded using spectrophotometer (SPEX FluoroLog-3). Quantum yield in DMSO was measured relative to the fluorescence of Rhodamine B (Φ=0.65) in ethanol or quinine sulfate (Φ=0.55) in 0.5 M·L^−1 H2SO4. FT-IR spectrum was taken on a PerkinElmer Spectrum 100 FT-IR Spectrometers. Confocal fluorescent images of living cells were performed using Nikon A1R-si Laser Scanning Confocal Microscope (Japan), equipped with lasers of 405/488/561/638 nm. STORM images were performed on a NSTORM (Nikon, Japan), featuring a CFI Apo TIRF 100× oil objective (NA 1.49) on an inverted Nikon Ti Eclipse microscope with a quad cube filter (Chroma, zt405/488/561/640 m-TRF), piezo stage, and Perfect Focus System (Nikon) for Z-stability. Light source are hand-held UV lamp, BlueView Transilluminator (470 nm centred, Vernier), Prior Lumen200 with 615/30 filter and 850 LED (Mouser Electronics).

[3] = Fluorescence quantum yield determination; type: physicochemical; details: DMSO; reference rhodamine B in ethanol or quinine sulfate in 0.5 M H2SO4
Experimental: as §1
Quantum yields were measured with Rhodamine B as reference (Φ=0.65) or quinine sulfate (Φ=0.55) in 0.5 M H2SO4. Fluorescence measurements were performed in 1 cm quartz cells with 5 μM samples in DMSO on spectrophotometer (SPEX FluoroLog-3) (slits 5×5). The fluorescence quantum yield, Φ (sample), were calculated according to equation as following:
[formula] Φ: quantum yield; I: integrated emission intensity; OD: optical density at the excitation wavelength; d: refractive index of solvents, dDMSO=1.478; dethanol=1.36; dwater=1.33.

λem [2]: 616 nm
ø (fluorescence quantum yield) [3]: <0.001
SMILES: CCN(CC)c1ccc2nc3c4ccccc4c(=S)cc-3oc2c1 [SNile Red]
colocalization with BODIPY 493/503 labeling [1]: more than 90%
